Measurements as given in patent US8883745B2, “C—glycolipids with enhanced Th-1 profile” (New York University, priority 2006, dated 2014).

What was measured:
IL-4 = IL-4 levels in sera upon i.v. glycolipid administration to C57BL/6 mice (ELISA); assay type: in vivo; design: unit not given here; conditions: for IL-4 level, Total: total over hours 0-72
Method: (§1) Five- to six-week-old female C57BL/6 mice and BALB/c mice were purchased from Taconic. Each glycolipid was stored at 1 mg/ml in 100% DMSO. Mice were injected intravenously with 1 μg of each glyocolipid diluted in 200 μL sterile phosphate buffered saline (PBS). At indicated time points, sera were collected from each animal, and concentrations of IFN-γ, IL-4, and IL-12 in the sera were evaluated by enzyme-linked immunosorbent assay (ELISA). Serum concentrations of IFN-γ, IL-4, and IL-12 were evaluated using an ELISA kit (eBioscience, San Diego, Calif.). Briefly, 96 well flat-bottom ELISA plates (NUNC) were coated with capture antibody according to the manufacture's recommendation and incubated overnight at 4° C. The plates were washed with PBS+0.05% Tween 20 (PBS-T), then incubated with manufacturer provided blocking solution for 1 hr at room temperature to block non-specific binding sites. After washing with PBS-T, sera diluted 1:10 was added to the wells and incubated for 2 hrs at room temperature. Plates were then incubated at room temperature for 1 hr with biotintylated detection antibody, washed, incubated with avidin conjugated to horse radish peroxidase (HRP) for 30 min at room temperature, washed, and finally incubated with tetramethylbenzidine substrate solution in the dark for 10 minutes at room temperature. The antibodies, avidin-HRP, and substrate solution were all diluted according to the manufacture's recommendation. Reactions were stopped with 2.0N sulfuric acid and the cytokine concentration in each well was determined by comparing the absorbance at 450 nm in each well to known standards. The levels of Th1- and Th2-type cytokines were determined in two different genetic backgrounds, i.e., in C57BL/6 mice and BALB/c mice. The following compounds were administered: A=compound (A-1 trans-conformer), B=compound (A-2), C=compound (A-3), D=compound (A-4), E=compound (A-5), Z=control (PBS alone), CRONY=α-C-GalCer, KRN=α-GalCer, GCK109 (A-1 trans-conformer), GCK151 (A-1 cis-conformer), GCK152 (A-7). The levels of cytokines were measured at 0, 2, 6, 12, 24, 48, and 72 hours after the compound administration. The levels of Th1-type cytokines IFN-γ and IL-12 are summarized in FIGS. 2A-C and 3A-C, respectively. Table 7 provides IFN-γ/IL-4 and IL-12/IL-4 ratios for various compounds, which can be used as indicators of their ability to selectively stimulate Th1-type immune responses.

IL-12 = IL-12 levels in sera upon i.v. glycolipid administration to BALB/c mice (ELISA); assay type: in vivo; design: IL-12 levels, test 1 / IL-12 levels, test 2 / IL-12 levels, average / IL-12 levels, Total: unit not given here; conditions: for IL-12/IL-4 (BALB/c): ratio calculated from Tables 1-6; for IL-12 levels, average / IL-12 levels, test 1 / IL-12 levels, test 2 / IL-12 levels, Total: serum; for IL-12 levels, Total: total over hours 0-72
Method: as §1

Q: With `CCCCCCCCCCCCCCCCC/C=C/CCCCCCCCC(=O)N[C@@H](CC[C@H]1O[C@H](CO)[C@H](O)[C@H](O)[C@H]1O)[C@H](O)[C@H](O)CCCCCCCCCCCCCC` [A-3] as the compound, how does the “IL-4 level, average” value (IL-4; hour 0) read?
A: Its value is 46.

Q: And the “IL-4 level, test 1” value (IL-4; hour 0)?
A: The value was 46.

Q: And the “IL-4 level, test 2” value (IL-4; hour 0)?
A: Its value is 46.

Q: And the “IL-4 level, average” value (IL-4; hour 2)?
A: Its value is 576.

Q: What about the “IL-4 level, test 1” value (IL-4; hour 2) of the same compound?
A: The value was 398.

Q: And the “IL-4 level, test 2” value (IL-4; hour 2)?
A: Its value is 754.

Q: What about the “IL-4 level, average” value (IL-4; hour 6) of the same compound?
A: The value was 72.5.

Q: And the “IL-4 level, test 1” value (IL-4; hour 6)?
A: The value was 59.

Q: And the “IL-4 level, test 2” value (IL-4; hour 6)?
A: The value was 86.

Q: What about the “IL-4 level, average” value (IL-4; hour 12) of the same compound?
A: Its value is 49.

Q: And the “IL-4 level, test 1” value (IL-4; hour 12)?
A: The value was 43.

Q: What about the “IL-4 level, test 2” value (IL-4; hour 12) of the same compound?
A: Its value is 55.

Q: What about the “IL-4 level, average” value (IL-4; hour 24) of the same compound?
A: The value was 57.5.

Q: What about the “IL-4 level, test 1” value (IL-4; hour 24) of the same compound?
A: The value was 49.

Q: And the “IL-4 level, test 2” value (IL-4; hour 24)?
A: The value was 66.

Q: And the “IL-4 level, average” value (IL-4; hour 48)?
A: Its value is 54.5.

Q: What about the “IL-4 level, test 1” value (IL-4; hour 48) of the same compound?
A: Its value is 54.

Q: What about the “IL-4 level, test 2” value (IL-4; hour 48) of the same compound?
A: The value was 55.

Q: What about the “IL-4 level, average” value (IL-4; hour 72) of the same compound?
A: The value was 58.

Q: What about the “IL-4 level, test 1” value (IL-4; hour 72) of the same compound?
A: The value was 54.

Q: And the “IL-4 level, test 2” value (IL-4; hour 72)?
A: The value was 62.

Q: What about the “IL-4 level, Total” value (IL-4) of the same compound?
A: The value was 915.

Q: What about the “IL-12/IL-4 (BALB/c)” value (IL-12) of the same compound?
A: Its value is 9.

Q: What about the “IL-12 levels, average” value (IL-12; hour 0) of the same compound?
A: The value was 5.

Q: What about the “IL-12 levels, test 1” value (IL-12; hour 0) of the same compound?
A: The value was 5.

Q: And the “IL-12 levels, test 2” value (IL-12; hour 0)?
A: Its value is 5.

Q: And the “IL-12 levels, average” value (IL-12; hour 2)?
A: Its value is 240.

Q: What about the “IL-12 levels, test 1” value (IL-12; hour 2) of the same compound?
A: The value was 362.

Q: What about the “IL-12 levels, test 2” value (IL-12; hour 2) of the same compound?
A: Its value is 118.

Q: And the “IL-12 levels, average” value (IL-12; hour 6)?
A: Its value is 1384.5.

Q: And the “IL-12 levels, test 1” value (IL-12; hour 6)?
A: The value was 1356.

Q: And the “IL-12 levels, test 2” value (IL-12; hour 6)?
A: The value was 1413.

Q: What about the “IL-12 levels, average” value (IL-12; hour 12) of the same compound?
A: Its value is 3010.5.

Q: And the “IL-12 levels, test 1” value (IL-12; hour 12)?
A: The value was 3256.

Q: And the “IL-12 levels, test 2” value (IL-12; hour 12)?
A: The value was 2765.

Q: What about the “IL-12 levels, average” value (IL-12; hour 24) of the same compound?
A: The value was 161.

Q: And the “IL-12 levels, test 1” value (IL-12; hour 24)?
A: The value was 134.

Q: And the “IL-12 levels, test 2” value (IL-12; hour 24)?
A: Its value is 188.

Q: And the “IL-12 levels, average” value (IL-12; hour 48)?
A: The value was 0.

Q: What about the “IL-12 levels, test 1” value (IL-12; hour 48) of the same compound?
A: Its value is 0.

Q: What about the “IL-12 levels, test 2” value (IL-12; hour 48) of the same compound?
A: Its value is 0.

Q: And the “IL-12 levels, average” value (IL-12; hour 72)?
A: Its value is 75.5.

Q: And the “IL-12 levels, test 1” value (IL-12; hour 72)?
A: Its value is 0.

Q: What about the “IL-12 levels, test 2” value (IL-12; hour 72) of the same compound?
A: Its value is 151.

Q: What about the “IL-12 levels, Total” value (IL-12) of the same compound?
A: The value was 4878.

Q: `CCCCCCCCCCCCCC[C@@H](O)[C@@H](O)[C@H](CC[C@H]1O[C@H](CO)[C@H](O)[C@H](O)[C@H]1O)NC(=O)CCCCCCCCCCCCCCCCCCCOCCCCCC` [A-4] was tested. Which “IL-4 level, average” value (IL-4; hour 0) did it give?
A: The value was 46.

Q: What about the “IL-4 level, test 1” value (IL-4; hour 0) of the same compound?
A: The value was 46.

Q: What about the “IL-4 level, test 2” value (IL-4; hour 0) of the same compound?
A: The value was 46.

Q: And the “IL-4 level, average” value (IL-4; hour 2)?
A: The value was 696.5.

Q: What about the “IL-4 level, test 1” value (IL-4; hour 2) of the same compound?
A: The value was 627.

Q: What about the “IL-4 level, test 2” value (IL-4; hour 2) of the same compound?
A: The value was 766.

Q: What about the “IL-4 level, average” value (IL-4; hour 6) of the same compound?
A: The value was 126.

Q: What about the “IL-4 level, test 1” value (IL-4; hour 6) of the same compound?
A: The value was 83.

Q: What about the “IL-4 level, test 2” value (IL-4; hour 6) of the same compound?
A: The value was 169.

Q: What about the “IL-4 level, average” value (IL-4; hour 12) of the same compound?
A: The value was 43.5.

Q: And the “IL-4 level, test 1” value (IL-4; hour 12)?
A: Its value is 40.

Q: And the “IL-4 level, test 2” value (IL-4; hour 12)?
A: The value was 47.

Q: And the “IL-4 level, average” value (IL-4; hour 24)?
A: The value was 29.5.

Q: And the “IL-4 level, test 1” value (IL-4; hour 24)?
A: Its value is 29.

Q: And the “IL-4 level, test 2” value (IL-4; hour 24)?
A: The value was 30.

Q: What about the “IL-4 level, average” value (IL-4; hour 48) of the same compound?
A: Its value is 28.5.

Q: And the “IL-4 level, test 1” value (IL-4; hour 48)?
A: The value was 39.

Q: And the “IL-4 level, test 2” value (IL-4; hour 48)?
A: Its value is 18.

Q: And the “IL-4 level, average” value (IL-4; hour 72)?
A: Its value is 41.5.

Q: What about the “IL-4 level, test 1” value (IL-4; hour 72) of the same compound?
A: Its value is 54.

Q: And the “IL-4 level, test 2” value (IL-4; hour 72)?
A: The value was 29.

Q: What about the “IL-4 level, Total” value (IL-4) of the same compound?
A: The value was 1014.

Q: What about the “IL-12/IL-4 (BALB/c)” value (IL-12) of the same compound?
A: Its value is 12.

Q: And the “IL-12 levels, average” value (IL-12; hour 0)?
A: Its value is 5.

Q: And the “IL-12 levels, test 1” value (IL-12; hour 0)?
A: Its value is 5.

Q: And the “IL-12 levels, test 2” value (IL-12; hour 0)?
A: The value was 5.

Q: What about the “IL-12 levels, average” value (IL-12; hour 2) of the same compound?
A: The value was 54.5.

Q: And the “IL-12 levels, test 1” value (IL-12; hour 2)?
A: The value was 57.

Q: And the “IL-12 levels, test 2” value (IL-12; hour 2)?
A: Its value is 52.

Q: What about the “IL-12 levels, average” value (IL-12; hour 6) of the same compound?
A: Its value is 914.5.

Q: And the “IL-12 levels, test 1” value (IL-12; hour 6)?
A: Its value is 730.

Q: What about the “IL-12 levels, test 2” value (IL-12; hour 6) of the same compound?
A: Its value is 1099.

Q: And the “IL-12 levels, average” value (IL-12; hour 12)?
A: Its value is 4463.

Q: What about the “IL-12 levels, test 1” value (IL-12; hour 12) of the same compound?
A: Its value is 3799.

Q: What about the “IL-12 levels, test 2” value (IL-12; hour 12) of the same compound?
A: Its value is 5127.

Q: What about the “IL-12 levels, average” value (IL-12; hour 24) of the same compound?
A: The value was 333.5.

Q: What about the “IL-12 levels, test 1” value (IL-12; hour 24) of the same compound?
A: Its value is 396.

Q: What about the “IL-12 levels, test 2” value (IL-12; hour 24) of the same compound?
A: The value was 271.

Q: What about the “IL-12 levels, average” value (IL-12; hour 48) of the same compound?
A: The value was 89.

Q: What about the “IL-12 levels, test 1” value (IL-12; hour 48) of the same compound?
A: The value was 58.

Q: What about the “IL-12 levels, test 2” value (IL-12; hour 48) of the same compound?
A: Its value is 120.

Q: What about the “IL-12 levels, average” value (IL-12; hour 72) of the same compound?
A: Its value is 64.5.

Q: What about the “IL-12 levels, test 1” value (IL-12; hour 72) of the same compound?
A: The value was 78.

Q: And the “IL-12 levels, test 2” value (IL-12; hour 72)?
A: The value was 51.

Q: What about the “IL-12 levels, Total” value (IL-12) of the same compound?
A: The value was 5926.
